Results published in US8211646B1, “Methods of treating ovarian cancer by modulating SnoN” (University of South Florida, priority 2008, dated 2012).
Peptide text beside a SMILES is read from it. * marks the point of attachment. Cbz = O=C(OCc1ccccc1)*; CH2F = FC*

Key:
Assay type in all cases: cell-based
[1] = test system: TAK1, SMAD2/3, TGFβRII, AKT, phospho-SMAD2; assay: Western analysis of other TGFβ signaling mediators
Experimental: (§1) Proteins were resolved on an 8%, 12%, or 15% SDS-PAGE gel (as appropriate) and electrophoretically transferred to polyvinyldifluoride (PVDF) membranes. After blocking with 5% (w/v) milk in TBST (Tris-Buffered Saline containing 0.1% Tween-20) for one hour at room temperature, membranes were incubated with primary antibodies (at appropriate dilution) overnight at 4° C., followed by extensive washing and incubation for 1 hour with the appropriate horseradish peroxidase-conjugated secondary antibodies (BioRad, Hercules, Calif.). Blots were washed extensively. A rabbit polyclonal EVI1 antibody was obtained (1:3000 dilution, St. Jude's Children's Hospital, Memphis, Tenn.). SnoN rabbit polyclonal (1:1000 dilution), PML, and p21 SMURF2 rabbit polyclonal (1:500 dilution), MRP1 mouse monoclonal (1:500 dilution) and GAPDH mouse monoclonal (1:250 dilution) antibodies were obtained from Santa Cruz Biotechnology (Santa Cruz, Calif.). TGFβRII rabbit polyclonal (1:1000 dilution) antibody was obtained from Strategic Diagnostics (Newark, Del.). Smad2/3 rabbit polyclonal (1:1000 dilution), Beclin-1 rabbit polyclonal (1:1000 dilution), AKT rabbit polyclonal (1:1000 dilution), TAK1 rabbit polyclonal (1:1000 dilution), PARP rabbit polyclonal (1:1000 dilution), Beclin-1 rabbit polyclonal (1:1000 dilution), caspase-3 rabbit polyclonal (1:1000) which detects the pro-caspase form, and ATG5 rabbit polyclonal (1:1000 dilution), LC3-II rabbit polyclonal (1:1000 dilution) antibodies were obtained from Cell Signaling Technology (Danvers, Mass.). The HSP27 mouse monoclonal (1:1000 dilution) antibody was obtained from Stressgen (Ann Arbor, Mich.). Blots were developed using chemiluminescence substrates (Amersham Piscataway, N.J. or BioRad, Hercules, Calif.). Monoclonal PAI-1 antibody was obtained from BD Pharmingen. PSMAD2, total SMAD2/3, p-ERK, p-AKT, and total AKT antibodies were obtained from Cell Signaling Technology. A monoclonal antibody against Arkadia was obtained from Abnova (Taiwan).
(§2) Densitometric analysis was performed using the HP Scanjet 5590 and the Image J program (Image Processing and Analysis in Java, NIH Image Software). Bands were selected and the intensity values were normalized to those for GAPDH. The values are presented as fold-changes relative to control siRNA treated cells.
(§3) The clinical inhibitors As2O3, geldanamycin (17-AAG) (dissolved in dimethylsulfoxide [DMSO]), and MG132 (dissolved in DMSO) were obtained from Sigma-Aldrich (St. Louis, Mo.), Fisher Scientific (Pittsburgh, Pa.), and Alexis Biochemicals (Farmingdale, N.Y.), respectively. N-acetyl-L-cysteine (NAC; dissolved in media) and Bortezomib (PS-341; dissolved in DMSO) were obtained from Fisher Scientific. 3-Methyladenine (3-MA; dissolved in media) was obtained from MP Biomedicals (Solon, Ohio). Tiron (4,5-Dihydroxy-1,3-benzenedisulfonic acid, dissolved in media) was obtained from Fisher Scientific. zVAD-fmk (dissolved in DMSO) and bafilomycin A (dissolved in DMSO) was obtained from Axxora LLC (San Diego, Calif.). Bovine catalase was obtained from Sigma-Aldrich. HBED and Mn TBAP was obtained from ENZO Life Sciences (Farmingdale, N.Y.). Ovarian cells were plated in 6-well plates at 250,000 cells per well and grown in complete medium. The following day, the cells were treated with 5 μM MG132, As2O3 (between 2-50 μM), 17-AAG (between 2-50 μM), NAC (Fisher Scientific, between 25 μM to 1 mM), Tiron (between 25 μM to 1 mM), 3-MA (0.1 mM to 10 mM), or zVAD-fmk (25 μM to 100 μM). For control cells, DMSO (a final concentration of <0.5%) was added to compare appropriately to drugs dissolved in DMSO. After the appropriate incubation time (6 or 18 hours), cell lysates were collected, protein quantified, and SDS-PAGE/western analysis was performed. In addition, for selected studies, RNA was isolated, quantified, and used for qPCR analysis.

[2] = test system: EVI1 forms (MDS1/EVI1, EVI1, EVI1^Del190-515)
Experimental: as §1, §2, §3

ovarian cancer cells = assay: Cell titer glo cell viability assay; conditions: 25 μM, 18 hour treatment, relative to control cells
Experimental: Measurement of Intracellular ATP Levels. T80, HEY, and SKOV3 ovarian cells were seeded in triplicate for each treatment group at 5000 cells per well into each well of a 96 well white-opaque plate. Following overnight cell attachment, cells were treated for 18 hours with appropriate doses of arsenic trioxide or geldanamycin (0 mM, 2 μM, 5 μM, 10 μM, 25 μM, and 50 μM). Following termination of the cell treatments, the media was removed from the wells and replaced with 100 μl of phosphate-buffered saline (PBS). The plate was equilibrated to room temperature, 100 μl of Cell-Titer Glo reagent (Promega, Madison, Wis.) was added, and mixed on a plate shaker for 2 minutes. The plate was further incubated for 10 minutes at room temperature prior to reading with a Biotek luminescence plate reader to obtain relative light unit (RLU) measurements. Empty wells (containing no cells) were utilized as a correction for background luminescence. All experiments were performed in triplicate.

SnoN = assay: Western analysis of SnoN protein levels
Experimental: as §1, §2
as §3, with “The following day, the cells were treated with 5 μM MG132, As2O3 (between 2-50 μM), 17-AAG (between 2-50 μM), NAC (Fisher Scientific, between 25 μM to 1 mM), Tiron (between 25 μM to 1 mM), 3-MA (0.1 mM to 10 mM), or zVAD-fmk (25 μM to 100 μM).” left out

HSP27 = assay: Western analysis of HSP27; conditions: HEY, 18 hours
Experimental: as §1, with “The HSP27 mouse monoclonal (1:1000 dilution) antibody was obtained from Stressgen (Ann Arbor, Mich.). Blots were developed using chemiluminescence substrates (Amersham Piscataway, N.J. or BioRad, Hercules, Calif.). Monoclonal PAI-1 antibody was obtained from BD Pharmingen. PSMAD2, total SMAD2/3, p-ERK, p-AKT, and total AKT antibodies were obtained from Cell Signaling Technology. A monoclonal antibody against Arkadia was obtained from Abnova (Taiwan).” left out
(§4) The clinical inhibitors As2O3, geldanamycin (17-AAG) (dissolved in dimethylsulfoxide [DMSO]), and MG132 (dissolved in DMSO) were obtained from Sigma-Aldrich (St. Louis, Mo.), Fisher Scientific (Pittsburgh, Pa.), and Alexis Biochemicals (Farmingdale, N.Y.), respectively. […] After the appropriate incubation time (6 or 18 hours), cell lysates were collected, protein quantified, and SDS-PAGE/western analysis was performed. In addition, for selected studies, RNA was isolated, quantified, and used for qPCR analysis.

cleaved PARP = assay: Western analysis of PARP cleavage (early apoptosis marker); conditions: HEY; for PARP cleavage in As2O3-treated cells with added inhibitor: 18 hours
Experimental: as §1, §2, §3

[3] = test system: LC3-I/LC3-II, autophagosomes; assay: Autophagy: LC3 western, EGFP-LC3 fluorescence, TEM of autophagosomes; conditions: HEY, 18 hours
Experimental: as §1
HEY cells were seeded onto glass coverslips and allowed to adhere following overnight incubation. The cells were then transiently transfected with EGFP-LC3 (Addgene, Cambridge, Mass.) and allowed to recover for 24 hours. The cells were treated at the appropriate concentrations of As2O3 in the absence or presence of 3-MA (5 and 10 mM), for 18 hours. The cells were then fixed in 4% paraformaldehyde in PBS for 30 minutes at room temperature, washed twice in PBS, and blocked for 1 hour at room temperature in PBS containing 5% goat serum and 0.1% Triton X-100. The cells were counterstained with Hoescht nuclear stain, washed 3 times for 5 minutes in PBS, anti-Fade containing DAPI nuclear stain was then applied, and coverslips mounted onto glass slides and viewed under a Zeiss inverted fluorescence microscope (Moffitt Cancer Center Microscopy Core).
Autophagy induction was analyzed using electron microscopy. […] Cells were then fixed in 2.5% glutaraldehyde in 0.1M phosphate buffer overnight at 4° C. Following rinsing in buffer, cells were scraped from the culture flasks, washed, and then post-fixed in 1% osmium tetroxide in buffer. After dehydration in a graded series of acetone, the cells were embedded in Embed 812 epoxy resin. Thin sections (70 nm) were cut on an Ultramicrotome. The sections on the grids were stained with uranyl acetate and lead citrate. The sections were examined on a Transmission Electron Microscope (Morgagni 268D).

SnoN RNA = assay: qPCR of SnoN RNA levels in ovarian cell lines; parameters: reduction of basal SnoN RNA levels / effect on basal SnoN RNA levels: unit of the concentration uncertain
Experimental: RNA was isolated using the RNeasy Mini Kit (Qiagen, Valencia, Calif.) from normal, benign, stage I-IV ovarian patient samples and quantitative PCR was performed. A one-step RT-PCR Taqman master mix from Applied Biosystems (Foster City, Calif.) and primers for genes in the 3q26.2 amplicon were obtained using Genebank sequences as well as from Assays on Demand (Hs00180524_m1 (SnoN/SkiL)), with the following primers and probe sets.
Primers/probe sequences for SnoN (Hs00180524_m1), TGFβRII (Hs00234253_m1), and LC3 (Hs00261291_m1) were obtained from Applied Biosystems (Assays by Design).
mRNA levels were determined using the One-Step-Plus Applied Biosystems Detection System or ABI PRISM 7700 Sequence Detection System using β-actin as a reference. PCR conditions were as follows: stage I: 48° C. for 30 min; stage II: 95° C. for 10 min; stage III: [40 cycles] 95° C. for 15 s followed by 60° C. for 1 min Using the correlative method, RNA-fold change in expression was calculated as Ct of gene—Ct of β-actin to generate ΔCt from which ΔCt of the normal sample was subtracted. These values were then converted to log2 values.
as §4, with “respectively. N-acetyl-L-cysteine (NAC; dissolved in media) and Bortezomib (PS-341; dissolved in DMSO) were obtained from Fisher Scientific. 3-Methyladenine (3-MA; dissolved in media) was obtained from MP Biomedicals (Solon, Ohio). Tiron (4,5-Dihydroxy-1,3-benzenedisulfonic acid, dissolved in media) was obtained from Fisher Scientific. zVAD-fmk (dissolved in DMSO) and bafilomycin A (dissolved in DMSO) was obtained from Axxora LLC (San Diego, Calif.).” for “respectively.”

[4] = HEY and OVCA429, 18 hours, increasing doses

Molecule: 17-allylaminogeldanamycin [17-AAG]
- TGFβRII, SMAD2/3, and AKT protein [1, 4]: more marked reductions
- MDS1/EVI1 and EVI1^Del190-515 protein ([2]; 5 μM 17-AAG, 18 hour): reduced
- wild type EVI1 protein ([2]; 5 μM 17-AAG, 18 hour): not dramatically affected
- protein levels of EVI1 forms [2, 4]: slight decrease
- reduction of cell growth (cellular viability) (ovarian cancer cells): 63%
- SnoN/SkiL protein levels (SnoN; [4]): slight decrease

Molecule: Cn1cnc(N)c2ncnc1-2 [3-MA, 3-Methyladenine]
- HSP27 levels in As2O3-treated cells with added inhibitor (HSP27): reduced dramatically
- PARP cleavage in As2O3-treated cells with added inhibitor (cleaved PARP): further increased
- LC3 levels (LC3-II/LC3-I) in As2O3-treated cells with added inhibitor [3]: reduced
- SnoN levels in As2O3-treated cells with added inhibitor (SnoN; HEY, 18 hours): not dramatically altered

Molecule: CO/C1=C\C(C)=C\[C@@H](C)[C@@H](O)[C@@H](C)C/C(C)=C/C=C/[C@H](OC)[C@@H]([C@@H](C)[C@@H](O)[C@H](C)[C@@]2(O)C[C@@H](O)[C@H](C)[C@@H](C(C)C)O2)OC1=O [Bafilomycin A1]
- PARP cleavage in As2O3-treated cells with added inhibitor (cleaved PARP): increased
- LC3 levels (LC3-II/LC3-I) in As2O3-treated cells with added inhibitor [3]: increased
- SnoN levels in As2O3-treated cells with added inhibitor (SnoN; HEY, 18 hours): slightly reduced

Molecule: O=c1cc(N2CCOCC2)oc2c(-c3ccccc3)cccc12 [LY294002]
- reduction of basal SnoN RNA levels (SnoN RNA; 50 (unit uncertain), 12 h post-treatment, OVCA429, HEY, T29, T80): 50%

Molecule: CC(=O)N[C@@H](CS)C(=O)O [NAC, N-acetyl-L-cysteine]
- EVI1, TAK1, and TGFβRII protein expression in As2O3-treated cells with NAC ([1]; HEY, 18 hours): recovery
- SnoN expression in As2O3-treated cells with increasing doses of NAC (SnoN; HEY, 18 hours): markedly reduced

Molecule: CC(C)C[C@H](NC(=O)[C@H](Cc1ccccc1)NC(=O)c1cnccn1)B(O)O [PS-341, Bortezomib]
- TGFβRII protein in drug-treated cells with added proteosome inhibitor ([1]; combination with As2O3 (MG132: 6 hour drug treatment)): did not appear to be recovered
- EVI1 protein in As2O3-treated cells with added proteosome inhibitor ([2]; combination with As2O3, HEY, OVCA429): recovered
- SnoN protein in drug-treated cells with added proteosome inhibitor (SnoN; combination with As2O3): further increased

Molecule: N#CC(=C(/N)Sc1ccccc1N)/C(C#N)=C(\N)Sc1ccccc1N [U0126]
- effect on basal SnoN RNA levels (SnoN RNA; 25 (unit uncertain), data not shown): not significant

Molecule: COC(=O)C[C@H](NC(=O)[C@H](C)NC(=O)[C@@H](NC(=O)OCc1ccccc1)C(C)C)C(=O)CF [zVAD-fmk] (Cbz-Val-Ala-Asp(OMe)-CH2F)
- HSP27 levels in As2O3-treated cells with added inhibitor (HSP27): slightly decreased
- PARP cleavage in As2O3-treated cells with added inhibitor (cleaved PARP): dramatically reduced
- LC3 levels (LC3-II/LC3-I) in As2O3-treated cells with added inhibitor [3]: remained unchanged
- SnoN levels in As2O3-treated cells with added inhibitor (SnoN; HEY, 18 hours): remained unchanged

Molecule: EVI1 siRNA: Dharmacon custom siRNA against EVI1 Exon VII, SEQ ID 6 (ACUACGUCUUCCUUAAAUAUU; listed as RNA, chemistry not given here)
- effect on As2O3-induced PARP cleavage (cleaved PARP; As2O3-treated): did not dramatically alter
- reduction of SnoN levels (SnoN; absence and presence of As2O3 (6 and 18 h, 50 μM), HEY): > 50%

Molecule: TGF-β
- phospho-SMAD2 levels ([1]; 1 h post stimulation, T29, T80, SKOV3, HEY, OVCA429, OVCAR8): markedly elevated
- SnoN protein levels in ovarian cancer cells (SnoN; SKOV3, OVCA429, OVCAR8, HEY, between 1 and 3 h post stimulation): dramatic increase
- SnoN protein levels in immortalized normal ovarian epithelial cells (SnoN; T29 and T80, between 15 min and 1 h post-TGF-β stimulation (50 pM)): dramatic decrease
